The record followed here is patent US9422285B2, “Substituted pyrazolo[1,5-A]-pyridine-3-carboxamides and use thereof” (Bayer Pharma Aktiengesellschaft, priority 2014, dated 2016).

For data set [1], the target named is T1, recombinant guanylate cyclase reporter cell line (Rattus norvegicus, UniProt P19686+P20595).
T1 construct: expressed in transfected cells
T1 sequence (P19686 1-690): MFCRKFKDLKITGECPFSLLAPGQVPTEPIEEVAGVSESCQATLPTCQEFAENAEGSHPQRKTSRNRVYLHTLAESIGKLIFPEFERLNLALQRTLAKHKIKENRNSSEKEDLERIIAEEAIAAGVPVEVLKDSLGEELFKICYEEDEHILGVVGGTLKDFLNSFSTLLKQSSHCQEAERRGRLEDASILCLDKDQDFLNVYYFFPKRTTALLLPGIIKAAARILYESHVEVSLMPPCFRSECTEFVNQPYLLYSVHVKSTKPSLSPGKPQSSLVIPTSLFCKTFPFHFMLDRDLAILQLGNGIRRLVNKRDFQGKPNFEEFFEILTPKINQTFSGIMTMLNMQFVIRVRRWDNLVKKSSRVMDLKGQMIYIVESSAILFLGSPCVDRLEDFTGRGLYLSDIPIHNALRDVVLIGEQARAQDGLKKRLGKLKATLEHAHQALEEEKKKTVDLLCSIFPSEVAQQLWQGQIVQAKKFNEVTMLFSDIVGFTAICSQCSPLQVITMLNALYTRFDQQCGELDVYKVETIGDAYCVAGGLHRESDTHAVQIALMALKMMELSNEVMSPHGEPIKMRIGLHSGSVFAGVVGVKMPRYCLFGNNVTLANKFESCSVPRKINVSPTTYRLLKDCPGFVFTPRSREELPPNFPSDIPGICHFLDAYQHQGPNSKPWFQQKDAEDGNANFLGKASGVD
T1 sequence (P20595 1-619): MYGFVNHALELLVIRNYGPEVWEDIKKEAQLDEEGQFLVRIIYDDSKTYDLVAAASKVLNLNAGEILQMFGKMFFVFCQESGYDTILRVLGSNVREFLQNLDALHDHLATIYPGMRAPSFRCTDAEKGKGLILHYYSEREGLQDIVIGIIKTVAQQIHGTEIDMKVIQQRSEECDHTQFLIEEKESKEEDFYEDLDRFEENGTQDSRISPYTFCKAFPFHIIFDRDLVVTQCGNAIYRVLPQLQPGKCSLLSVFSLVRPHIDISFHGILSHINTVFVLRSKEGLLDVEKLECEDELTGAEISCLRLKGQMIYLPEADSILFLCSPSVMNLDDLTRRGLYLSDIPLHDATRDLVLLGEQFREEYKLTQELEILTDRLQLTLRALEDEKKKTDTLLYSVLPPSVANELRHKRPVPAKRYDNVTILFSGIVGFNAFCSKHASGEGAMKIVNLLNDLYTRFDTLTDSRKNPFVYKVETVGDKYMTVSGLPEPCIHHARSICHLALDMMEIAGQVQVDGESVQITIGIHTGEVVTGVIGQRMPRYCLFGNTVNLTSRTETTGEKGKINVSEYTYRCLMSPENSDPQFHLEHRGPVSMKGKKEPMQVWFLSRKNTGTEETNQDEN
Put plainly: Effect on a recombinant guanylate cyclase reporter cell line (B-2). In kind it is cell-based. Conditions: in some cases mean values for individual determinations. The protocol: B-2. Effect on a Recombinant Guanylate Cyclase Reporter Cell Line
The cellular effect of the inventive compounds is determined using a recombinant guanylate cyclase reporter cell line, as described in F. Wunder et al., Anal. Biochem. 339, 104-112 (2005).
Representative MEC values (MEC=minimum effective concentration) for the inventive compounds are shown in the table below (in some cases as mean values for individual determinations): […]

Data set [2] can be described thus: Pharmacokinetic parameters following intravenous administration in rats (B-6). Format: in vivo, male Wistar rats. Conditions: for MRT / half-life: male, Wistar, rat, plasma; for MRT: mean residence time; for half-life: terminal half-life. The text has this:
• Klaus Witte, Kai Hu, Johanna Swiatek, Claudia Müssig, Georg Ertl and Bjorn Lemmer: Experimental heart failure in rats: effects on cardiovascular circadian rhythms and on myocardial β-adrenergic signaling. Cardiovasc Res 47 (2): […], 2000; Kozo Okamoto: Spontaneous hypertension in rats. Int Rev Exp Pathol 7: 227-270, 1969; Maarten van den Buuse: Circadian Rhythms of Blood Pressure, Heart Rate, and Locomotor Activity in Spontaneously Hypertensive Rats as Measured With Radio-Telemetry. Physiology & Behavior 55(4): 783-787, 1994 B-6. Determination of Pharmacokinetic Parameters Following Intravenous and Oral Administration
The pharmacokinetic parameters of the inventive compounds are determined in male CD-1 mice, male Wistar rats and female beagles. Intravenous administration in the case of mice and rats is effected by means of a species-specific plasma/DMSO formulation, and in the case of dogs by means of a water/PEG400/ethanol formulation. In all species, oral administration of the dissolved substance is performed via gavage, based on a water/PEG400/ethanol formulation. The removal of blood from rats is simplified by inserting a silicone catheter into the right Vena jugularis externa prior to substance administration. The operation is effected at least one day prior to the experiment with isofluran anaesthesia and administration of an analgesic (atropine/rimadyl (3/1) 0.1 ml s.c.). The blood is taken (generally more than 10 time points) within a time window including terminal time points of at least 24 to a maximum of 72 hours after substance administration. The blood is removed into heparinized tubes. The blood plasma is then obtained by centrifugation; if required, it can be stored at −20° C. until further processing.
An internal standard (which may also be a chemically unrelated substance) is added to the samples of the inventive compounds, calibration samples and qualifiers, and there follows protein precipitation by means of acetonitrile in excess. Addition of a buffer solution matched to the LC conditions, and subsequent vortexing, is followed by centrifugation at 1000 g. The supernatant is analysed by means of LC-MS/MS using C18 reversed-phase columns and variable mobile phase mixtures. The substances are quantified via the peak heights or areas from extracted ion chromatograms of specific selected ion monitoring experiments.
The plasma concentration/time plots determined are used to calculate the pharmacokinetic parameters such as AUC, Cmax, t1/2 (terminal half-life), F (bioavailability), MRT (mean residence time) and CL (clearance), by means of a validated pharmacokinetic calculation program.
Since the substance quantification is performed in plasma, it is necessary to determine the blood/plasma distribution of the substance in order to be able to adjust the pharmacokinetic parameters correspondingly. For this purpose, a defined amount of substance is incubated in heparinized whole blood of the species in question in a rocking roller mixer for 20 min. After centrifugation at 1000 g, the plasma concentration is measured (by means of LC-MS/MS; see above) and determined by calculating the ratio of the Cblood/Cplasma value.

As to `Cc1cc(OCc2c(F)cccc2F)n2nc(C)c(C(=O)NCC(C)(N)CCC(F)(F)F)c2c1` (single isomer, unassigned) [Example 43, ent-N-(2-Amino-5,5,5-trifluoro-2-methylpentyl)-7-[(2,6-difluorobenzyl)oxy]-2,5-dimethylpyrazolo[1,5-a]pyridine-3-carboxamide], in data set [1], the “MEC (minimum effective concentration)” value stood at 0.1 µM. In data set [2], this compound showed an AUCnormal of 0.49 kg·h/L, a CLblood of 42.7 mL/min/kg, an MRT of 7.4 h and a half-life of 5.9 h.
For `Cc1cc(OCc2c(F)ccc(F)c2F)n2nc(C)c(C(=O)NCC(C)(N)CCC(F)(F)F)c2c1` (single isomer, unassigned; enantiomer b) [Example 168, ent-N-(2-Amino-5,5,5-trifluoro-2-methylpentyl)-2,5-dimethyl-7-[(2,3,6-trifluorobenzyl)oxy]pyrazolo[1,5-a]pyridine-3-carboxamide (Enantiomer B)], in data set [1], the “MEC (minimum effective concentration)” value stood at 0.1 µM. Also, in data set [2], the AUCnormal was found to be 0.45 kg·h/L, the CLblood amounted to 36.5 mL/min/kg, the MRT is 4.3 h and the half-life is 3.2 h.
Take `CCCC(C)(N)CNC(=O)c1c(C2CC2)nn2c(OCc3c(F)ccc(F)c3F)cc(C)cc12` (single isomer, unassigned; enantiomer b) [Example 169, ent-N-(2-Amino-2-methylpentyl)-2-cyclopropyl-5-methyl-7-[(2,3,6-trifluorobenzyl)oxy]pyrazolo[1,5-a]pyridine-3-carboxamide (Enantiomer B)]: in data set [1], the “MEC (minimum effective concentration)” value was found to be 0.2 µM. In data set [2], this compound gave an AUCnormal of 0.44 kg·h/L, a CLblood of 36.8 mL/min/kg, an MRT of 4.9 h and a half-life of 4 h.
Taken in the same sequence, the figures for `CCCC(C)(N)CNC(=O)c1c(C2CC2)nn2c(OCc3c(F)cccc3F)cc(C)cc12` (single isomer, unassigned) [Example 55, ent-N-(2-Amino-2-methylpentyl)-2-cyclopropyl-7-[(2,6-difluorobenzyl)oxy]-5-methylpyrazolo[1,5-a]pyridine-3-carboxamide] were 0.1 µM, 0.37 kg·h/L, 46 mL/min/kg, 3.5 h and 2.6 h.
Taken in the same sequence, the figures for `Cc1cc(OCc2c(F)ccc(F)c2F)n2nc(C3CC3)c(C(=O)NCC(C)(N)CCC(F)(F)F)c2c1` (single isomer, unassigned; enantiomer b) [Example 170, ent-N-(2-Amino-5,5,5-trifluoro-2-methylpentyl)-2-cyclopropyl-5-methyl-7-[(2,3,6-trifluorobenzyl)oxy]pyrazolo[1,5-a]pyridine-3-carboxamide (Enantiomer B)] were 0.1 µM, 0.32 kg·h/L, 48.7 mL/min/kg, 3.4 h and 2.6 h.

Broadly, the MRT is a mean duration of stay, worked out from the concentration-time curve. As usually defined, the half-life is how long it takes for the measured level to halve. The low end stands for rapid decline, the high end for slow decline.
